Structures are written as SMILES.

The assay has as its target angiotensin II receptor. Kind of assay: Displacement of 125I- or 3H-angiotensin II from receptor preparations from various organs (liver, lung, adrenal gland, brain etc.). The conditions noted are these: Table 1; radioligand displacement, 25° C., 90 min, pH 7.4. Format: binding. How it is done:
Alternatively, the affinity of the compounds of the formula I for the angiotensin II receptor can be determined by measurement of the ^125 I-angiotensin II or ^3 H-angiotensin II displacement of receptor preparations from various organs (liver, lung, adrenal gland, brain etc.).
To this end, the prepared membranes are suspended in an incubation buffer ([…], pH 7.4, containing 135 mM NaCl, 10 mM KCl, 10 mM MgCl2, 5 mM glucose, 0.2% bovine serum albumin and the protease inhibitors PMSF, 0.3 mM, and bacitracin, 0.1 mM) and incubated at 25° C. for 90 min together with the radioactively labeled angiotensin II and various concentrations of the compounds to be tested. Bound and free radioligand are then separated by filtration through micro glass fiber filters (GF51, Schleicher and Schull) in a cell collector (SKATRON).
The degree of displacement of the radioligand from the receptor by the test compounds is determined by measurement of the receptor-bound radioactivity on the filters by means of a beta- or gamma-spectrometer. The amount of the displacement of the radioligand from the receptor by the test compounds is indicated by the IC50, i.e. the concentration of the inhibitor which displaces 50% of the bound radioligand from the receptor. The calculation of the IC50 values is carried out by means of PC software (LIGAND, G. A. McPherson 1985, Elsevier BIOSOFT, 68 Hills Road, Cambridge, CB2 1LA, UK.).
Take `CCCCc1nc(SC)c(C(=O)O)n1Cc1ccc(-c2ccccc2S(=O)(=O)NC(=O)NCc2cccnc2)cc1` [Example 112]: the IC50 (in general, the concentration at which inhibition is half-maximal) was determined as 1.5 nM.
Compound `CCCCc1nc(SC)c(C(=O)O)n1Cc1ccc(-c2ccccc2S(=O)(=O)NC(=O)NCc2ccccn2)cc1` [Example 113] gave an IC50 of 0.3 nM.
As for `CCCCc1nc(SC)c(C(=O)O)n1Cc1ccc(-c2ccccc2S(=O)(=O)NC(=O)NCc2ccncc2)cc1` [Example 115], the IC50 was found to be 0.9 nM.
As for `CCCCc1nc(SC)c(C(=O)O)n1Cc1ccc(-c2ccccc2S(=O)(=O)NC(=O)NCCCN2CCCC2=O)cc1` [Example 116], the IC50 worked out at 2.4 nM. Against the preceding compound, the IC50 is about 2.7-fold higher.
Then `CCCCc1nc(SC)c(C(=O)OCC)n1Cc1ccc(-c2ccccc2S(=O)(=O)NC(=O)NCC2CCNCC2)cc1` [Example 117], with 1.2 nM; and `CCCCc1nc(SC)c(C(=O)O)n1Cc1ccc(-c2ccccc2S(=O)(=O)NC(=O)N[C@H](CO)c2ccccc2)cc1` [Example 124], with 1.8 nM; and `CCCCc1nc(SC)c(C(=O)O)n1Cc1ccc(-c2ccccc2S(=O)(=O)NC(=O)N[C@@H](CO)c2ccccc2)cc1` [Example 125], with 2.8 nM.
`C=C[C@H](Cc1ccccc1)NC(=O)NS(=O)(=O)c1ccccc1-c1ccc(Cn2c(CCCC)nc(SC)c2C(=O)O)cc1` [Example 127] had an IC50 of 3 nM.
`CCCCc1nc(SC)c(C(=O)OCC)n1Cc1ccc(-c2ccccc2S(=O)(=O)NC(=O)N[C@H](CO)Cc2ccccc2)cc1` [Example 128] registered an IC50 of 5.6 nM.
Then `CCCCc1nc(SC)c(C(=O)O)n1Cc1ccc(-c2ccccc2S(=O)(=O)NC(=O)N[C@H](CO)Cc2ccccc2)cc1` [Example 129], with 1.5 nM.
Then `CCCCc1nc(SC)c(C(=O)OCC)n1Cc1ccc(-c2ccccc2S(=O)(=O)NC(=O)NCC2CCC3CC2C3(C)C)cc1` (centres unmarked) [Example 134], with 180 nM; and `CCCCc1nc(SC)c(C(=O)O)n1Cc1ccc(-c2ccccc2S(=O)(=O)NC(=O)NCC2CCC3CC2C3(C)C)cc1` (centres unmarked) [Example 135], with 5.6 nM.
Compound `CCCCc1nc(SC)c(C(=O)OCC)n1Cc1ccc(-c2ccccc2S(=O)(=O)NC(=O)n2cccc2)cc1` [Example 138] returned an IC50 of 1.7 nM.
As to `CCCCc1nc(SC)c(C(=O)O)n1Cc1ccc(-c2ccccc2S(=O)(=O)NC(=O)n2cccc2)cc1` [Example 139], the IC50 was determined as 2.8 nM.
The figure for `CCCCc1nc(SC)c(C(=O)OCC)n1Cc1ccc(-c2ccccc2S(=O)(=O)NC(=O)N2CCOCC2)cc1` [Example 140] is 8.2 nM.
The compound `CCCCc1nc(SC)c(C(=O)OCC)n1Cc1ccc(-c2ccccc2S(=O)(=O)NC(=O)N2CCCC2)cc1` [Example 141] registered an IC50 of 4.4 nM.
With `CCCCc1nc(SC)c(C(=O)OCC)n1Cc1ccc(-c2ccccc2S(=O)(=O)NC(=O)N2CCSCC2)cc1` [Example 144], the IC50 is 5.3 nM.
As to `CCCCc1nc(SC)c(C(=O)OCC)n1Cc1ccc(-c2ccccc2S(=O)(=O)NC(=O)N2CCC(NC(=O)OC(C)(C)C)CC2)cc1` [Example 146], the IC50 was 40 nM.
The figure for `CCCCc1nc(SC)c(C(=O)OCC)n1Cc1ccc(-c2ccccc2S(=O)(=O)NC(=O)OCCc2ccccc2)cc1` [Example 151] is 0.4 nM; for `CCCCc1nc(SC)c(C(=O)O)n1Cc1ccc(-c2ccccc2S(=O)(=O)NC(=O)OCCc2ccccc2)cc1` [Example 152] it is 1.5 nM; for `C=CCCOC(=O)NS(=O)(=O)c1ccccc1-c1ccc(Cn2c(CCCC)nc(SC)c2C(=O)O)cc1` [Example 153] it is 0.88 nM.
Take `C#CCCOC(=O)NS(=O)(=O)c1ccccc1-c1ccc(Cn2c(CCCC)nc(SC)c2C(=O)O)cc1` [Example 154]: the IC50 was determined as 1.8 nM.
In the case of `CCCCc1nc(SC)c(C(=O)O)n1Cc1ccc(-c2ccccc2S(=O)(=O)NC(=O)OCC2CC2)cc1` [Example 155], the IC50 was determined as 6 nM. This IC50 is about 3.3-fold higher than that of the compound before.
Compound `CCCCc1nc(SC)c(C(=O)OCC)n1Cc1ccc(-c2ccccc2S(=O)(=O)NC(=O)OCCOC(C)C)cc1` [Example 156] registered an IC50 of 4.7 nM.
On to `CCCCc1nc(SC)c(C(=O)O)n1Cc1ccc(-c2ccccc2S(=O)(=O)NC(=O)OCCOC(C)C)cc1` [Example 157], for which the IC50 stood at 1.4 nM. Against the preceding compound, the IC50 is about 3.4-fold lower.
Consider `CCCCc1nc(SC)c(C(=O)OCC)n1Cc1ccc(-c2ccccc2S(=O)(=O)NC(=O)OCc2cccs2)cc1` [Example 159], for which the IC50 was 8.7 nM.
For the compound `CCCCc1nc(SC)c(C(=O)O)n1Cc1ccc(-c2ccccc2S(=O)(=O)NC(=O)OCc2cccs2)cc1` [Example 160], the IC50 was found to be 0.73 nM.
Regarding `CCCCc1nc(SC)c(C(=O)OCC)n1Cc1ccc(-c2ccccc2S(=O)(=O)NC(=O)OCC=Cc2ccccc2)cc1` [Example 161], the concentration for half-maximal inhibition (IC50) came out at 57 nM.
Then `CCCCc1nc(SC)c(C(=O)O)n1Cc1ccc(-c2ccccc2S(=O)(=O)NC(=O)OCC=Cc2ccccc2)cc1` [Example 162], with 3.9 nM.
Compound `CCCCc1nc(SC)c(C(=O)OCC)n1Cc1ccc(-c2ccccc2S(=O)(=O)NC(=O)OCc2cccs2)cc1` [Example 163] had an IC50 of 3.7 nM.
`CCCCc1nc(SC)c(C(=O)O)n1Cc1ccc(-c2ccccc2S(=O)(=O)NC(=O)OCc2cccs2)cc1` [Example 164] came in with a 50% inhibitory concentration (IC50) of 0.86 nM. This IC50 lies about 4.3-fold lower than the previous one.
As for `CCCCc1nc(SC)c(C(=O)O)n1Cc1ccc(-c2ccccc2S(=O)(=O)NC(=O)OCC=C(C)C)cc1` [Example 165], the IC50 was found to be 2.3 nM.
For the compound `C=C(C)COC(=O)NS(=O)(=O)c1ccccc1-c1ccc(Cn2c(CCCC)nc(SC)c2C(=O)O)cc1` [Example 166], the IC50 turned out to be 1.2 nM. Compared with the last compound, the IC50 is about 1.9-fold lower.
The compound `C=CCCCOC(=O)NS(=O)(=O)c1ccccc1-c1ccc(Cn2c(CCCC)nc(SC)c2C(=O)O)cc1` [Example 167] yielded a concentration for half-maximal inhibition (IC50) of 4 nM. Compared with the last compound, the IC50 is about 3.3-fold higher.
On to `CCCCc1nc(SC)c(C(=O)O)n1Cc1ccc(-c2ccccc2S(=O)(=O)NC(=O)OCC2CC=CCC2)cc1` (centres unmarked) [Example 168], for which the IC50 is 7 nM.
The compound `CC#CCOC(=O)NS(=O)(=O)c1ccccc1-c1ccc(Cn2c(CCCC)nc(SC)c2C(=O)O)cc1` [Example 169] displayed an IC50 of 2.9 nM.
For the compound `CCCCc1nc(SC)c(C(=O)OCC)n1Cc1ccc(-c2ccccc2S(=O)(=O)NC(=O)OCC)cc1` [Example 170], the IC50 amounted to 2.7 nM.
Compound `CCCCc1nc(SC)c(C(=O)O)n1Cc1ccc(-c2ccccc2S(=O)(=O)NC(=O)OCC)cc1` [Example 171] came in with an IC50 of 0.7 nM. This IC50 is about 3.9-fold lower than that of the compound before.
`CCCCc1nc(SC)c(C(=O)O)n1Cc1ccc(-c2ccccc2S(=O)(=O)NC(=O)OCCOCc2ccccc2)cc1` [Example 172]: the IC50 stood at 0.48 nM.
`CCCCc1nc(SC)c(C(=O)OCC)n1Cc1ccc(-c2ccccc2S(=O)(=O)NC(=O)OC)cc1` [Example 174]: the IC50 was found to be 5.1 nM.
Turning to `CCCCc1nc(SC)c(C(=O)O)n1Cc1ccc(-c2ccccc2S(=O)(=O)NS(=O)(=O)N(C)C)cc1` [Example 179, 1-[1-(2'-dimethylsulfamoylaminosulfonylbiphenyl-4-yl)methyl]-2-n-butyl-4-methylthioimidazole-5-carboxylic acid], the IC50 amounted to 2.6 nM. Compared with the last compound, the IC50 is about 2-fold lower.
The compound `C=CCOC(=O)NS(=O)(=O)c1ccccc1-c1ccc(Cn2c(CCCC)nc(SC)c2C(=O)O)cc1` [Example 181, 1-[(2'-allyloxycarbonylaminosulfonylbiphenyl-4-yl)methyl]-2-n-butyl-4-methylthioimidazole-5-carboxylic acid] showed an IC50 of 1 nM.
For `CCCCc1nc(SC)c(C(=O)O)n1Cc1ccc(-c2ccccc2S(=O)(=O)NC(=O)OCc2ccccc2)cc1` [Example 183, 1-[(2'-Benzyloxycarbonylaminosulfonylbiphenyl-4-yl)methyl]-2-n-butyl-4-methylthioimidazole-5-carboxylic acid], the IC50 amounted to 1.7 nM.
Consider `CCCCc1nc(OC)c(C=O)n1Cc1ccc(-c2ccccc2S(=O)(=O)NC(=O)OCC)cc1` [Example 185, 1-{[(2'-Ethoxycarbonylaminosulfonyl)biphenyl-4-yl]-methyl}-2-n-butyl-4-methoxyimidazole-5-carbaldehyde], for which the IC50 came out at 5.9 nM.
In turn, `CCCCc1nc(OC)c(C=O)n1Cc1ccc(-c2ccccc2S(=O)(=O)NC(=O)OCc2ccccc2)cc1` [Example 186, 1-{[(2'-Benzyloxycarbonylaminosulfonyl)biphenyl-4-]methyl}-2-n-butyl-4-methoxyimidazole-5-carbaldehyde] showed an IC50 of 6.5 nM.
The compound `CCCCc1ncc(C(=O)OCC)n1Cc1ccc(-c2ccccc2S(=O)(=O)NC(=O)NCc2ccccc2)cc1` [Example 187, Ethyl 1-{[(2'-benzylaminocarbonylaminosulfonyl)biphenyl-4-yl]methyl}-2-n-butylimidazole-5-carboxylate] displayed an IC50 of 1.2 nM. Against the preceding compound, the IC50 is about 5.4-fold lower.
Then `CCCCc1nc(SC)c(C(=O)O)n1Cc1ccc(-c2ccccc2S(=O)(=O)NS(=O)(=O)c2cccs2)cc1` [Example 190, 1-[(2'-{2-Thienylsulfonylaminosulfonyl}biphenyl-4-yl)methyl]-2-n-butyl-4-methylthioimidazole-5-carboxylic acid], with 22 nM; and `CCCCc1nc(SC)c(C(=O)OCC)n1Cc1ccc(-c2ccccc2S(=O)(=O)NS(=O)(=O)c2ccc([N+](=O)[O-])cc2)cc1` [Example 191], with 21.4 nM; and `CCCCc1nc(SC)c(C(=O)OCC)n1Cc1ccc(-c2ccccc2S(=O)(=O)NS(=O)(=O)c2cccs2)cc1` [Example 194], with 21.7 nM.
Then `CCCCc1nc(SC)c(C(=O)OCC)n1Cc1ccc(-c2ccccc2S(=O)(=O)NC(=O)NC)cc1` [Example 195], with 3 nM.

The values are drawn from patent US5482957A, “Azole derivatives, process for their preparation and their use” (Hoechst Aktiengesellschaft, priority 1991, dated 1996).
